{
  "source": "patent US20120207856A1",
  "about": "“MSH3 Expression Status Determines the Responsiveness of Cancer Cells to the Chemotherapeutic Treatment with PARP Inhibitors and Platinum Drugs” (Baylor Research Institute, priority 2011, published 2012)",
  "key": {"[1]": {"system": "HHUA cells", "conditions": "MSH3-deficient HHUA versus MSH3-proficient HHUA complemented with chromosome 5; cited from earlier work"}, "[2]": {"system": "HCT116+3+5 and G5 cells", "assay": "Clonogenic survival after MLH1 siRNA transfection", "type": "cell-based, human"}, "[3]": {"system": "HCT116+3+5 cells", "assay": "Clonogenic survival after transient MSH3 siRNA transfection", "type": "cell-based, human", "conditions": "MSH3 siRNA versus non-targeted siRNA; cisplatin 5 μM and 10 μM, oxaliplatin 2 μM and 5 μM, 48 hours after transfection; FIGS. 3B & 3C"}, "[4]": {"system": "tumors occurring in MSH2-null mice", "conditions": "MSH2-null mice versus mice with MSH2 G674D mutations; cited from earlier work"}, "[5]": {"system": "HCT116, HCT116+3, HCT116+3+5, G1, G2 and G5 cells", "assay": "Clonogenic survival assay in isogenic HCT116-derived cell lines", "type": "cell-based, human", "procedure": "(§1) Cell lines and cell culture—The human colon cancer cell lines HCT116, HCT116+ch.3 (HCT116+3), HCT116+ch.3+ch.5 (HCT116+3+5) have been described previously (10,23). HCT116+3+5 cells were stably transfected with a tetracycline-regulated retroviral vector, the TMP (Open Biosystems, Huntsville, Ala.) that encodes shRNA against MSH3. Stable MSH3-deficient clones G1, G2 and G5 were isolated (see results and (23)). HCT116, HCT116+3, and HCT116+3+5 cells were grown in IMDM (Invitrogen, Rockville, Md.) with 10% fetal bovine serum. The G1, G2 and G5 cells were maintained in IMDM with 10% fetal bovine serum and 0.6 μg/ml of puromycin. To turn off the expression of MSH3 shRNA, 1 μg/ml of doxycycline was added to the culture medium.\nClonogenic survival assay—Two hundred cells were seeded in each well of a six-well plate. For the measurement of the cytotoxicity caused by cisplatin or oxaliplatin, the cells were treated with the drugs for 24 hours once the cells were attached to the plate. For the measurement of the cytotoxicity caused by olaparib, cells were continuously treated with the drug during the experiments. After 8-10 days, the number of colonies (colonies with >50 cells) were counted, and the relative change in clonogenic survival of drug-treated versus untreated cells was determined."}, "[6]": {"system": "HT29 cells", "assay": "Clonogenic survival after transient MSH3 siRNA transfection", "type": "cell-based, human", "conditions": "HT29 cells treated with MSH3 siRNA versus non-targeted siRNA; FIGS. 3E & 3F"}, "[7]": {"system": "MSH3-deficient cells", "assay": "Sensitivity of MSH3-deficient cells to SN-38 (data not shown)", "type": "cell-based"}, "[8]": {"system": "HCT116+3+5 and G5 cells", "assay": "Proliferation assay (BrdU incorporation)", "type": "cell-based, human", "conditions": "MSH3-deficient cells; FIG. 2G", "procedure": "Proliferation assay—The proliferation index was measured by bromodeoxyuridine (BrdU) incorporation in HCT116+3+5 and G5 cells, 48 hours after the initial 24 hour treatment with cisplatin or oxaliplatin (Cell Proliferation ELISA, BrdU, Roche Diagnositics, Indianapolis, Ind.). Experiments were performed in triplicate and data was obtained from three or four independent experiments."}, "[9]": {"system": "HCT116+3+5 and G1 cells", "assay": "Cell cycle analysis by flow cytometry", "type": "cell-based, human", "conditions": "MSH3-deficient versus MSH3-proficient cells", "procedure": "Cell cycle analysis—One million cells were seeded in 10 cm plates. Once attached, the cell lines were treated with oxaliplatin for 24 hours. After an additional 48 hours, cells were washed twice with cold PBS, fixed in cold 70% ethanol at −20° C. overnight or for several days. The ethanol fixed cells (2×10^6) were subsequently washed with PBS twice and incubated with 300 μl of PBS and 0.15% RNase A for 15 minutes at 37° C. The cells were stained with 75 μg/ml propidium iodide for 30 minutes and then analyzed for DNA content using the FACSCantoII flow cytometer (BD Biosciences, San Jose, Calif.). Cell cycle data was analyzed by the Flowjo software (Tree Star, Ashland, Oreg.)."}, "[10]": {"system": "HCT116+3+5 and G5 cells", "assay": "Immunofluorescence staining for active caspase-3", "type": "cell-based, human", "conditions": "MSH3-deficient cells, FIG. 2H", "procedure": "(§2) Immunofluorescence staining—Ten thousand cells were grown on glass coverslips in a 12-well plate. The cells were fixed with 4% paraformaldehyde (pH 7.5) in PBS for 15 minutes, permeabilized with 0.3% Triton X-100 for five minutes, and then blocked with 10% goat serum (Invitrogen, Carlsbad, Calif.) for one hour. The cells were subsequently incubated with an anti-active caspase-3 antibody (1:500, G748, Promega, Madison, Wis.) an anti-phosphorylated H2AX (pH2AX) antibody (1:5000, JBW301, Millipore Corporation, Billerica, Mass.), or an anti-53BP1 antibody (1:600, ab21083, Abcam, Cambridge, Mass.) for one hour, followed by a secondary antibody (1:800, Alexa Fluor 555 goat anti-mouse or anti-rabbit antibody, Invitrogen) for 40 minutes. Prolong Gold with DAPI (Invitrogen) was used in mounting the medium. The images were obtained using AxioSkop2 multichannel epifluorescence microscope equipped with the AxioVision software (Carl Zeiss, Thornwood, N.Y.)."}, "[11]": {"system": "pH2AX", "assay": "Immunofluorescence staining for pH2AX foci", "type": "cell-based, human", "procedure": "as §2"}, "[12]": {"system": "53BP1", "assay": "Immunofluorescence staining for 53BP1 foci", "type": "cell-based, human", "conditions": "MSH3-deficient G5 cells after treatment; 5 μM for 6 hours, analyzed after 48 hours; FIGS. 5C & 5D", "procedure": "as §2"}, "[13]": {"system": "MSH3", "assay": "Western blot analysis of MSH3 expression", "type": "cell-based, human", "conditions": "G1, G2 and G5 clones; doxycycline 1 μg/ml; densitometry; FIGS. 1A & 1B", "procedure": "as §1\nWestern blot analysis—Proteins from cell lysates were prepared, separated on the SDS-PAGE and transferred to PVDF membranes as described previously (31). Anti-hMSH3 mouse monoclonal antibody (dilution; 1:250, Clone 52, BD Pharmingen, San Jose, Calif.), anti-hMLH1 mouse monoclonal antibody (1:200, G168-728, BD Pharmingen) and anti-β-actin antibody (1:10000, Clone AC-15, Sigma-Aldrich) were used as primary antibodies for the detection of specific proteins. Goat anti-mouse antibody (1:3000, sc-2005, Santa Cruz Biotechnology, Santa Cruz, Calif.) was used as a secondary antibody. […]"}},
  "note": "Read-outs that look alike come from different tables or passages of the source.",
  "data": [
    {"molecule": "N.N.[Cl][Pt][Cl]", "note": "[cisplatin]", "values": [
      {"measurement": "sensitivity", "setting": "[1]", "result": "did not differ"},
      {"measurement": "sensitivity (clonogenic survival)", "setting": "[2]; G5 versus HCT116+3+5, MLH1 down-regulated by siRNA, 2 μM and 5 μM, FIGS. 4C & 4D", "result": "more sensitive"},
      {"measurement": "susceptibility (clonogenic survival)", "setting": "[3]", "result": "more susceptible"},
      {"measurement": "resistance of tumors", "setting": "[4]", "result": "more resistant"},
      {"measurement": "sensitivity (clonogenic survival)", "setting": "[5]; G1 and G2 clones, data not shown", "result": "behaved similarly to G5"},
      {"measurement": "sensitivity (clonogenic survival) on restoration of MSH3 expression", "setting": "[5]; G5 cells with versus without doxycycline, 5 μM, FIG. 2B", "result": "desensitized"},
      {"measurement": "sensitivity (clonogenic survival)", "setting": "[5]; HCT116 versus HCT116+3 cell lines, FIG. 2A", "result": "No significant differences"},
      {"measurement": "sensitivity (clonogenic survival)", "setting": "[5]; MSH3-deficient G5 clone versus parental HCT116+3+5, FIG. 2A", "result": "more sensitive"},
      {"measurement": "resistance (clonogenic survival)", "setting": "[5]; MSH3-proficient HCT116+3+5 versus HCT116 and HCT116+3, FIG. 2A", "result": "higher resistance"},
      {"measurement": "sensitivity (clonogenic survival)", "setting": "[6]", "result": "more sensitive"}
    ]},
    {"molecule": "CCc1c2c(nc3ccc(O)cc13)-c1cc3c(c(=O)n1C2)COC(=O)[C@]3(O)CC", "note": "[SN-38]", "values": [
      {"measurement": "sensitization by MSH3 deficiency", "setting": "[7]", "result": "sensitized"}
    ]},
    {"molecule": "O=C1[O][Pt]2([NH][C@@H]3CCCC[C@H]3[NH]2)[O]C1=O", "note": "[oxaliplatin]", "values": [
      {"measurement": "sensitivity", "setting": "[1]", "result": "did not differ"},
      {"measurement": "sensitivity (clonogenic survival)", "setting": "[2]", "result": "more sensitive"},
      {"measurement": "susceptibility (clonogenic survival)", "setting": "[3]", "result": "more susceptible"},
      {"measurement": "cell proliferation (BrdU incorporation)", "setting": "[8]", "result": "decreased"},
      {"measurement": "sensitivity (clonogenic survival)", "setting": "[5]; MSH3-deficient HCT116, HCT116+3 and G5 versus parental HCT116+3+5, FIG. 2C", "result": "significantly more sensitive"},
      {"measurement": "sensitivity (clonogenic survival) on restoration of MSH3", "setting": "[5]; MSH3-deficient cells (G1, G2, G5) with versus without doxycycline 1 μg/ml, FIG. 2D", "result": "restoration of oxaliplatin insensitivity"},
      {"measurement": "degree of cell growth inhibition (decrease in S-phase population)", "setting": "[9]; FIG. 2E", "result": "significantly higher"},
      {"measurement": "levels of apoptosis (increase in sub-G1 population)", "setting": "[9]; FIG. 2F", "result": "significantly higher"},
      {"measurement": "apoptotic fraction (anti-active caspase-3 positive cells)", "setting": "[10]", "result": "increased"},
      {"measurement": "sensitivity (clonogenic survival)", "setting": "[6]", "result": "more sensitive"},
      {"measurement": "rate of reduction in the number of pH2AX foci-positive cells", "setting": "[11]; MSH3-deficient G5 versus MSH3-restored G5 and HCT116+3+5, 48 and 72 hours, FIGS. 5A & 5B", "result": "lower rate of reduction"},
      {"measurement": "number of pH2AX foci-positive cells before and after treatment", "setting": "[11]; MSH3-proficient versus -deficient cell lines, 5 μM for 6 hours", "result": "no differences"},
      {"measurement": "levels of 53BP1", "setting": "[12]", "result": "Sustained levels"}
    ]},
    {"molecule": "C[C@H]1c2cccc(O)c2C(=O)C2=C(O)[C@]3(O)C(=O)C(C(N)=O)=C(O)[C@@H](N(C)C)[C@@H]3[C@@H](O)[C@@H]21", "note": "[doxycycline]", "values": [
      {"measurement": "MSH3 expression relative to parental HCT116+3+5", "setting": "[13]", "result": "40-60%"}
    ]},
    {"molecule": "O=C(c1cc(Cc2n[nH]c(=O)c3ccccc23)ccc1F)N1CCN(C(=O)C2CC2)CC1", "note": "[olaparib]", "values": [
      {"measurement": "sensitivity (clonogenic survival)", "setting": "[5]; MSH3-deficient G5 versus MSH3-restored G5 cell line, 2 μM, FIG. 6A", "result": "more sensitive"}
    ]}
  ]
}
